Consider nine compounds from patent publication US9809623B2, “α4β7 peptide monomer and dimer antagonists” (Protagonist Therapeutics, Inc., priority 2014, dated 2017).

Numbered stars: 1 amine (or outer) side, 2 acyl side, 3 side chain; on linkers, the order of the positions; unused ones are H or OH. Bridge positions count the residues as written; N and C are the ends. Square brackets hold non-standard residues; d marks the D form. Peptide text beside a SMILES is read from it. I, II: the chains in the order shown. Bip = N[C@@H](Cc1ccc(-c2ccccc2)cc1)C(=O)O; 1Nal = N[C@@H](Cc1cccc2ccccc12)C(=O)O; 2Nal = N[C@@H](Cc1ccc2ccccc2c1)C(=O)O; d2Nal = N[C@H](Cc1ccc2ccccc2c1)C(=O)O; Diglycolyl = O=C(COCC(=O)[*:2])[*:1]; NMeR = CN[C@@H](CCCNC(=N)N)C(=O)O; Tic = O=C(O)[C@@H]1Cc2ccccc2CN1; β3hE = N[C@@H](CCC(=O)O)CC(=O)O; Pen = CC(C)(S)[C@H](N)C(=O)O

Chain of α4β7 (P13612 34-1032): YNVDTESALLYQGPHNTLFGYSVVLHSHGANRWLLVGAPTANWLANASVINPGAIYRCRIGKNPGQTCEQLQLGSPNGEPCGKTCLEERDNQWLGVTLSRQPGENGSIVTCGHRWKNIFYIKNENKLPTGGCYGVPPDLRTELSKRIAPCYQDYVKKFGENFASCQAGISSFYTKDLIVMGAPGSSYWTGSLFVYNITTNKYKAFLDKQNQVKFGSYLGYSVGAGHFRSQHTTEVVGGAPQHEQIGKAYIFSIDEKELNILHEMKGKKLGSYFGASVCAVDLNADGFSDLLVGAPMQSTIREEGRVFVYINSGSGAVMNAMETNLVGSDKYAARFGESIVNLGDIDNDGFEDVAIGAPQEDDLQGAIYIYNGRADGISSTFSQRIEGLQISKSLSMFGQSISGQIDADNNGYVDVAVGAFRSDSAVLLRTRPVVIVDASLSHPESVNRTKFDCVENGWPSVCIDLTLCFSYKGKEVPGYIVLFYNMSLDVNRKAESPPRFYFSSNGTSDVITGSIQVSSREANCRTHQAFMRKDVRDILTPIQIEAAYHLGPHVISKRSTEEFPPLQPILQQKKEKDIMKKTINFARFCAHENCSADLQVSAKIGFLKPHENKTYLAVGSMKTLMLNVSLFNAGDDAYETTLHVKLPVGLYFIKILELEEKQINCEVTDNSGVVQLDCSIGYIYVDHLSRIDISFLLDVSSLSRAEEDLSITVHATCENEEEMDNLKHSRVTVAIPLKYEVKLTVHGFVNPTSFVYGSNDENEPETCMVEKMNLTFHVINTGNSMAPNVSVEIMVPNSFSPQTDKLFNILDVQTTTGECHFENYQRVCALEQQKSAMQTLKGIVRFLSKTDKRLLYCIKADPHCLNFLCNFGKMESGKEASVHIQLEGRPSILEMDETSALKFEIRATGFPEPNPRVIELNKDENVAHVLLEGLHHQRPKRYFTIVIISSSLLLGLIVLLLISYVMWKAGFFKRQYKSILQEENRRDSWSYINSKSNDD
Chain of α4β7 (P26010 20-798): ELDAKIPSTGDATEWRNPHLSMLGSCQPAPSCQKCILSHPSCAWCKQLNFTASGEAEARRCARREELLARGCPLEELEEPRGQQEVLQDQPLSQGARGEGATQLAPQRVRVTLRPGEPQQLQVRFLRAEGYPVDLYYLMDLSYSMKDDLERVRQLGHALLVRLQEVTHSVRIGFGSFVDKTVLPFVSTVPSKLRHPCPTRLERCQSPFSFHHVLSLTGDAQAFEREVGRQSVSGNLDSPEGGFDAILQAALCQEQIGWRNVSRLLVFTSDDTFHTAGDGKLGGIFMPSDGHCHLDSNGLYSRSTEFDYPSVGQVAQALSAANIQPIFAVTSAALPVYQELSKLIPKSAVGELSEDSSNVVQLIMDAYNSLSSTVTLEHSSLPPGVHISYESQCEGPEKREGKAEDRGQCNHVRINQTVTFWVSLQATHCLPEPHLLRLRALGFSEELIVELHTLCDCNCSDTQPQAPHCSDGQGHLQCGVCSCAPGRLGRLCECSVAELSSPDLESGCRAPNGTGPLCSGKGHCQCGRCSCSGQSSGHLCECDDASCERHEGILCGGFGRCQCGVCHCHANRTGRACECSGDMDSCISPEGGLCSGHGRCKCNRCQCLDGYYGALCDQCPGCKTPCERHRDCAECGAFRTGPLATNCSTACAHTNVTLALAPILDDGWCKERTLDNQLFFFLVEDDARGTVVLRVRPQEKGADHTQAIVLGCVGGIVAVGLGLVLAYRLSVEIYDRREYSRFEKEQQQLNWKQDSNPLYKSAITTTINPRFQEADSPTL

This test concerns the target α4β7 (Homo sapiens, UniProt P13612+P26010). Description: α4β7-MAdCAM Cell Adhesion Assay (RPMI 8866 human cells). Type of test: cell-based. The arrangement: host or cells: RPMI 8866 human B lymphoblastoid cells. To be noted: Table 3-B, Potency (α4β7); range classes; read-out: α4β7 cell (Hu) IC50. A digest of the protocol: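 Adhesion read-out: MTT absorbance at 570 nm minus no-cell wells, after three washes. Plates coated with rh MAdCAM-1/Fc received peptide dilutions plus 200,000 RPMI 8866 cells in Mn2+ (1 mM)-supplemented DMEM, 0.1% BSA, HEPES pH 7, incubated 30-45 min, 37 °C.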
In general, IC50 refers to the concentration that inhibits the measured activity by half. Take `CC(=O)N[C@@H]1C(=O)N(C)[C@@H](CCCNC(=N)N)C(=O)N[C@@H](CO)C(=O)N[C@@H](CC(=O)O)C(=O)N[C@@H]([C@@H](C)O)C(=O)N[C@@H](CC(C)C)C(=O)N[C@H](C(=O)N[C@H](Cc2ccc3ccccc3c2)C(=O)N[C@@H](CCC(=O)O)C(=O)N[C@H](CCCCNC(=O)COCC(=O)NCCCC[C@@H](NC(=O)[C@H](CCC(=O)O)NC(=O)[C@@H](Cc2ccc3ccccc3c2)NC(=O)[C@H]2NC(=O)[C@H](CC(C)C)NC(=O)[C@H]([C@@H](C)O)NC(=O)[C@H](CC(=O)O)NC(=O)[C@H](CO)NC(=O)[C@H](CCCNC(=N)N)N(C)C(=O)[C@@H](NC(C)=O)C(C)(C)SSC2(C)C)C(N)=O)C(N)=O)C(C)(C)SSC1(C)C` [compound 35] (I: Ac-[Pen][NMeR]SDTL[Pen][d2Nal]E[dK]-NH2 / II: Ac-[Pen][NMeR]SDTL[Pen][d2Nal]E[dK]-NH2; disulfide I:1-I:7, II:1-II:7; linker I:10-II:10 via Diglycolyl): the IC50 fell in the range of 100 to 500 nM.

With `CC(=O)N[C@@H]1C(=O)N(C)[C@@H](CCCNC(=N)N)C(=O)N[C@@H](CO)C(=O)N[C@@H](CC(=O)O)C(=O)N[C@@H]([C@@H](C)O)C(=O)N[C@@H](CC(C)C)C(=O)N[C@H](C(=O)N[C@@H](Cc2cccc3ccccc23)C(=O)N[C@H](CC(C)C)C(=O)N[C@H](CCCCNC(=O)COCC(=O)NCCCC[C@@H](NC(=O)[C@@H](CC(C)C)NC(=O)[C@H](Cc2cccc3ccccc23)NC(=O)[C@H]2NC(=O)[C@H](CC(C)C)NC(=O)[C@H]([C@@H](C)O)NC(=O)[C@H](CC(=O)O)NC(=O)[C@H](CO)NC(=O)[C@H](CCCNC(=N)N)N(C)C(=O)[C@@H](NC(C)=O)C(C)(C)SSC2(C)C)C(N)=O)C(N)=O)C(C)(C)SSC1(C)C` [compound 113] (I: Ac-[Pen][NMeR]SDTL[Pen][1Nal][dL][dK]-NH2 / II: Ac-[Pen][NMeR]SDTL[Pen][1Nal][dL][dK]-NH2; disulfide I:1-I:7, II:1-II:7; linker I:10-II:10 via Diglycolyl), the IC50 lay within 500 to 1000 nM.

Consider `CC(=O)N[C@@H]1C(=O)N(C)[C@@H](CCCNC(=N)N)C(=O)N[C@@H](CO)C(=O)N[C@@H](CC(=O)O)C(=O)N[C@@H]([C@@H](C)O)C(=O)N[C@@H](CC(C)C)C(=O)N[C@H](C(=O)N[C@@H](Cc2ccc3ccccc3c2)C(=O)N[C@H](Cc2ccccc2)C(=O)N[C@H](CCCCNC(=O)COCC(=O)NCCCC[C@@H](NC(=O)[C@@H](Cc2ccccc2)NC(=O)[C@H](Cc2ccc3ccccc3c2)NC(=O)[C@H]2NC(=O)[C@H](CC(C)C)NC(=O)[C@H]([C@@H](C)O)NC(=O)[C@H](CC(=O)O)NC(=O)[C@H](CO)NC(=O)[C@H](CCCNC(=N)N)N(C)C(=O)[C@@H](NC(C)=O)C(C)(C)SSC2(C)C)C(N)=O)C(N)=O)C(C)(C)SSC1(C)C` [compound 117] (I: Ac-[Pen][NMeR]SDTL[Pen][2Nal][dF][dK]-NH2 / II: Ac-[Pen][NMeR]SDTL[Pen][2Nal][dF][dK]-NH2; disulfide I:1-I:7, II:1-II:7; linker I:10-II:10 via Diglycolyl), for which the IC50 lay within 100 to 500 nM.

As for `CC(=O)N[C@@H]1C(=O)N(C)[C@@H](CCCNC(=N)N)C(=O)N[C@@H](CO)C(=O)N[C@@H](CC(=O)O)C(=O)N[C@@H]([C@@H](C)O)C(=O)N[C@@H](CC(C)C)C(=O)N[C@H](C(=O)N[C@@H](Cc2ccc3ccccc3c2)C(=O)N2Cc3ccccc3C[C@H]2C(=O)N[C@H](CCCCNC(=O)COCC(=O)NCCCC[C@@H](NC(=O)[C@@H]2Cc3ccccc3CN2C(=O)[C@H](Cc2ccc3ccccc3c2)NC(=O)[C@H]2NC(=O)[C@H](CC(C)C)NC(=O)[C@H]([C@@H](C)O)NC(=O)[C@H](CC(=O)O)NC(=O)[C@H](CO)NC(=O)[C@H](CCCNC(=N)N)N(C)C(=O)[C@@H](NC(C)=O)C(C)(C)SSC2(C)C)C(N)=O)C(N)=O)C(C)(C)SSC1(C)C` [compound 121] (I: Ac-[Pen][NMeR]SDTL[Pen][2Nal][Tic][dK]-NH2 / II: Ac-[Pen][NMeR]SDTL[Pen][2Nal][Tic][dK]-NH2; disulfide I:1-I:7, II:1-II:7; linker I:10-II:10 via Diglycolyl), the IC50 lay within 100 to 500 nM.

On to `CC(=O)N[C@@H]1C(=O)N(C)[C@@H](CCCNC(=N)N)C(=O)N[C@@H](CO)C(=O)N[C@@H](CC(=O)O)C(=O)N[C@@H]([C@@H](C)O)C(=O)N[C@@H](CC(C)C)C(=O)N[C@H](C(=O)N[C@@H](Cc2c[nH]c3ccccc23)C(=O)N2CCC[C@@H]2C(=O)N[C@@H](CCCCNC(=O)COCC(=O)NCCCC[C@H](NC(=O)[C@H]2CCCN2C(=O)[C@H](Cc2c[nH]c3ccccc23)NC(=O)[C@H]2NC(=O)[C@H](CC(C)C)NC(=O)[C@H]([C@@H](C)O)NC(=O)[C@H](CC(=O)O)NC(=O)[C@H](CO)NC(=O)[C@H](CCCNC(=N)N)N(C)C(=O)[C@@H](NC(C)=O)C(C)(C)SSC2(C)C)C(N)=O)C(N)=O)C(C)(C)SSC1(C)C` [compound 96] (I: Ac-[Pen][NMeR]SDTL[Pen]W[dP]K-NH2 / II: Ac-[Pen][NMeR]SDTL[Pen]W[dP]K-NH2; disulfide I:1-I:7, II:1-II:7; linker I:10-II:10 via Diglycolyl), for which the IC50 was in the range of 50 to 100 nM.

With `CC(=O)N[C@@H]1C(=O)N(C)[C@@H](CCCNC(=N)N)C(=O)N[C@@H](CO)C(=O)N[C@@H](CC(=O)O)C(=O)N[C@@H]([C@@H](C)O)C(=O)N[C@@H](CC(C)C)C(=O)N[C@H](C(=O)N[C@@H](Cc2ccc(-c3ccccc3)cc2)C(=O)N[C@@H](CCC(=O)O)CC(=O)N[C@H](CCCCNC(=O)COCC(=O)NCCCC[C@@H](NC(=O)C[C@H](CCC(=O)O)NC(=O)[C@H](Cc2ccc(-c3ccccc3)cc2)NC(=O)[C@H]2NC(=O)[C@H](CC(C)C)NC(=O)[C@H]([C@@H](C)O)NC(=O)[C@H](CC(=O)O)NC(=O)[C@H](CO)NC(=O)[C@H](CCCNC(=N)N)N(C)C(=O)[C@@H](NC(C)=O)C(C)(C)SSC2(C)C)C(N)=O)C(N)=O)C(C)(C)SSC1(C)C` [compound 135] (I: Ac-[Pen][NMeR]SDTL[Pen][Bip][β3hE][dK]-NH2 / II: Ac-[Pen][NMeR]SDTL[Pen][Bip][β3hE][dK]-NH2; disulfide I:1-I:7, II:1-II:7; linker I:10-II:10 via Diglycolyl), the IC50 is less than 10 nM.

With `CC(=O)N[C@@H]1C(=O)N(C)[C@@H](CCCNC(=N)N)C(=O)N[C@@H](CO)C(=O)N[C@@H](CC(=O)O)C(=O)N[C@@H]([C@@H](C)O)C(=O)N[C@@H](CC(C)C)C(=O)N[C@H](C(=O)N[C@H](Cc2c[nH]c3ccccc23)C(=O)N[C@@H](CCC(=O)O)C(=O)N[C@H](CCCCNC(=O)COCC(=O)NCCCC[C@@H](NC(=O)[C@H](CCC(=O)O)NC(=O)[C@@H](Cc2c[nH]c3ccccc23)NC(=O)[C@H]2NC(=O)[C@H](CC(C)C)NC(=O)[C@H]([C@@H](C)O)NC(=O)[C@H](CC(=O)O)NC(=O)[C@H](CO)NC(=O)[C@H](CCCNC(=N)N)N(C)C(=O)[C@@H](NC(C)=O)C(C)(C)SSC2(C)C)C(N)=O)C(N)=O)C(C)(C)SSC1(C)C` [compound 28] (I: Ac-[Pen][NMeR]SDTL[Pen][dW]E[dK]-NH2 / II: Ac-[Pen][NMeR]SDTL[Pen][dW]E[dK]-NH2; disulfide I:1-I:7, II:1-II:7; linker I:10-II:10 via Diglycolyl), the concentration for half-maximal inhibition (IC50) was in the range of 50 to 100 nM.

Regarding `CC(=O)N[C@@H]1C(=O)N(C)[C@@H](CCCNC(=N)N)C(=O)N[C@@H](CO)C(=O)N[C@@H](CC(=O)O)C(=O)N[C@@H]([C@@H](C)O)C(=O)N[C@@H](CC(C)C)C(=O)N[C@H](C(=O)N[C@@H](Cc2ccc(-c3ccccc3)cc2)C(=O)N[C@H](CCC(=O)O)C(=O)N[C@H](CCCCNC(=O)COCC(=O)NCCCC[C@@H](NC(=O)[C@@H](CCC(=O)O)NC(=O)[C@H](Cc2ccc(-c3ccccc3)cc2)NC(=O)[C@H]2NC(=O)[C@H](CC(C)C)NC(=O)[C@H]([C@@H](C)O)NC(=O)[C@H](CC(=O)O)NC(=O)[C@H](CO)NC(=O)[C@H](CCCNC(=N)N)N(C)C(=O)[C@@H](NC(C)=O)C(C)(C)SSC2(C)C)C(N)=O)C(N)=O)C(C)(C)SSC1(C)C` [compound 108] (I: Ac-[Pen][NMeR]SDTL[Pen][Bip][dE][dK]-NH2 / II: Ac-[Pen][NMeR]SDTL[Pen][Bip][dE][dK]-NH2; disulfide I:1-I:7, II:1-II:7; linker I:10-II:10 via Diglycolyl), the IC50 lay in the range of 10 to 25 nM.

Turning to `COc1ccc(C[C@H](NC(=O)[C@H]2NC(=O)[C@H](CC(C)C)NC(=O)[C@H]([C@@H](C)O)NC(=O)[C@H](CC(=O)O)NC(=O)[C@H](CO)NC(=O)[C@H](CCCNC(=N)N)N(C)C(=O)[C@@H](NC(C)=O)C(C)(C)SSC2(C)C)C(=O)N[C@H](CCC(=O)O)C(=O)N[C@H](CCCCNC(=O)COCC(=O)NCCCC[C@@H](NC(=O)[C@@H](CCC(=O)O)NC(=O)[C@H](Cc2ccc(OC)cc2)NC(=O)[C@H]2NC(=O)[C@H](CC(C)C)NC(=O)[C@H]([C@@H](C)O)NC(=O)[C@H](CC(=O)O)NC(=O)[C@H](CO)NC(=O)[C@H](CCCNC(=N)N)N(C)C(=O)[C@@H](NC(C)=O)C(C)(C)SSC2(C)C)C(N)=O)C(N)=O)cc1` [compound 103] (I: Ac-[Pen][NMeR]SDTL[Pen]Y(Me)[dE][dK]-NH2 / II: Ac-[Pen][NMeR]SDTL[Pen]Y(Me)[dE][dK]-NH2; disulfide I:1-I:7, II:1-II:7; linker I:10-II:10 via Diglycolyl), the IC50 lay within 25 to 50 nM.
